These results are taken from the Kinase Knowledgebase extract (Sharma et al. 2016).

Some results are limits rather than exact numbers.

This assay addresses CDK2 (human) (UniProt P24941). Description: Enzyme Assay.

`CCc1c(N[C@H]2CC[C@H](N)CC2)nc2ccnn2c1Nc1ccc(Br)cc1` displayed an IC50 below 100 µM.

`Cc1c(NC2CCCNC2)nc2ccnn2c1Nc1ccc(-c2cccc(CO)c2)cc1` (stereo unspecified) returned a half-maximal inhibitory concentration (IC50) below 100 µM.

As to `CCOc1ccc(Nc2c(C)c(NC3CCCNC3)nc3c(C4CC4)cnn23)cc1` (stereo unspecified), the IC50 is below 100 µM.

In turn, `COc1ccc(Nc2c(CCCO)c(N[C@H]3CC[C@H](N)CC3)nc3ccnn23)cc1OC` gave an IC50 below 100 µM.

In the case of `CCOc1cccc(Nc2c(C)c(N[C@H]3CC[C@H](N)CC3)nc3ccnn23)c1`, the IC50 is below 100 µM.

`CCOc1ccc(Nc2c(C)c(N[C@@H]3CN[C@@H](C(=O)O)C3)nc3ccnn23)cc1` yielded a half-maximal inhibitory concentration (IC50) below 100 µM.

In the case of `CCOc1ccc(Nc2c(OC)c(NC3CCCNC3)nc3ccnn23)cc1` (stereo unspecified), the IC50 was below 100 µM.

`COCc1cccc(-c2ccc(Nc3c(C)c(N[C@H]4CC[C@H](N)CC4)nc4ccnn34)cc2)c1`: the IC50 was below 100 µM.

`Cc1c(N[C@H]2CC[C@H](N)CC2)nc2ccnn2c1Nc1ccc(OC2CCCCC2)cc1` displayed an IC50 below 100 µM.

The molecule `COc1ccccc1-c1ccc(Nc2c(C)c(N[C@H]3CC[C@H](N)CC3)nc3ccnn23)cc1` returned an IC50 below 100 µM.

The molecule `N[C@H]1CC[C@H](Nc2cc(Nc3ccc(F)c(Cl)c3)n3ncc(Cl)c3n2)CC1` showed a concentration for half-maximal inhibition (IC50) below 100 µM.

Regarding `Cc1c(N[C@H]2CC[C@H](N)CC2)nc2ccnn2c1Nc1ccc2cn[nH]c2c1`, the IC50 was below 100 µM.

`CCOc1ccc(Nc2c(C)c(N[C@H]3CC[C@H](N)CC3)nc3c(CO)cnn23)cc1`: the IC50 is below 100 µM.

Take `Cc1c(NC2CCCNC2)nc2ccnn2c1Nc1ccc(-c2ccc(N)cc2)cc1` (stereo unspecified): the IC50 is below 100 µM.

Molecule `CCOc1ccc(Nc2c(C)c(N[C@H]3CC[C@H](N)CC3)nc3c(C4CC4)cnn23)cc1` had an IC50 below 100 µM.

In the case of `Cc1c(N[C@H]2CC[C@H](N)CC2)nc2ccnn2c1Nc1ccc(C(=O)NCc2ccco2)cc1`, the IC50 was below 100 µM.

In turn, `CCc1c(NC2CCCNC2)nc2ccnn2c1Nc1ccc(OC)c(Cl)c1` (stereo unspecified) returned an IC50 below 100 µM.

As to `COc1c(NC2CCCNC2)nc2ccnn2c1Nc1ccc(F)c(Cl)c1` (stereo unspecified), the IC50 was below 100 µM.

Consider `Cc1c(N[C@H]2CC[C@H](N)CC2)nc2ccnn2c1Nc1ccc(C(=O)c2ccccc2)cc1`, for which the IC50 was below 100 µM.

Molecule `Cc1c(N[C@H]2CC[C@H](N)CC2)nc2ccnn2c1Nc1ccccc1F` showed an IC50 below 100 µM.

`CCc1c(N[C@H]2CC[C@H](N)CC2)nc2ccnn2c1NCc1ccccc1Cl`: the IC50 was below 100 µM.

For `CCOc1ccc(Nc2c(C)c(N[C@H]3CC[C@H](N)CC3)nc3c(C(=O)Nc4cccnc4)cnn23)cc1`, the IC50 is below 100 µM.

In the case of `Cc1c(N[C@H]2CC[C@H](N)CC2)nc2ccnn2c1Nc1cccc(OCc2cccc(N)c2)c1`, the IC50 is below 100 µM.

As to `Cc1c(N[C@H]2CC[C@H](N)CC2)nc2ccnn2c1Nc1ccc(OC(C)C)cc1`, the IC50 was below 100 µM.

The molecule `Cc1c(N[C@H]2CC[C@H](N)CC2)nc2ccnn2c1Nc1ccc(-c2ccsc2C=O)cc1` gave a 50% inhibitory concentration (IC50) below 100 µM.

Regarding `Cc1c(N[C@H]2CC[C@H](N)CC2)nc2ccnn2c1Nc1ccc(-c2ccc(OC(F)(F)F)cc2)cc1`, the IC50 is below 100 µM.

In the case of `Cc1c(N[C@H]2CC[C@H](N)CC2)nc2ccnn2c1Nc1ccc(OCc2ccccc2Cl)cc1`, the IC50 is below 100 µM.

Consider `CCOc1ccc(Nc2c(C)c(N[C@H]3CCN(Cc4ccccc4)C3)nc3ccnn23)cc1`, for which the IC50 is below 100 µM.

`Cc1c(N[C@H]2CC[C@H](N)CC2)nc2ccnn2c1Nc1ccc(-c2cccc(N)c2)cc1` registered an IC50 below 100 µM.

Molecule `Cc1c(N[C@H]2CC[C@H](N)CC2)nc2ccnn2c1Nc1ccc(OCC2CCCN(C)C2)cc1` (stereo partly specified) registered an IC50 below 100 µM.

`CC1=[SH]c2cc(Nc3c(C)c(N[C@H]4CC[C@H](N)CC4)nc4ccnn34)ccc2N1`: the IC50 was below 100 µM.

For `Cc1c(N[C@H]2CC[C@H](N)CC2)nc2ccnn2c1Nc1cccc(OCc2ccc(Cl)cc2)c1`, the IC50 is below 100 µM.

`Cc1c(N[C@H]2CC[C@H](N)CC2)nc2ccnn2c1Nc1ccc(-c2cccc(F)c2)cc1` returned an IC50 below 100 µM.

`Cc1c(N[C@H]2CC[C@H](N)CC2)nc2ccnn2c1Nc1ccc(OCCc2ccccn2)cc1` came in with an IC50 below 100 µM.

As to `CCCc1c(N[C@H]2CC[C@H](N)CC2)nc2ccnn2c1Nc1ccc(F)c(Cl)c1`, the IC50 was below 100 µM.

In the case of `CCOc1ccc(Nc2c(C)c(NC3CCCNC3)nc3c(C(C)C)cnn23)cc1` (stereo unspecified), the IC50 was below 100 µM.

Take `CCc1c(N[C@H]2CC[C@H](N)CC2)nc2ccnn2c1Nc1ccc(F)c(Cl)c1`: the 50% inhibitory concentration (IC50) was below 100 µM.

The molecule `CCOc1ccc(Nc2c(C)c(N[C@H]3CC[C@H](N)CC3)nc3c(C(=O)O)cnn23)cc1` had an IC50 below 100 µM.

`Cc1c(N[C@H]2CC[C@H](N)CC2)nc2ccnn2c1Nc1ccc(OCCN2CCOCC2)cc1` had an IC50 below 100 µM.

`CCc1c(N[C@H]2CC[C@H](N)CC2)nc2ccnn2c1Nc1cccc(Br)c1`: the IC50 was below 100 µM.

For the molecule `CCc1c(N[C@H]2CC[C@H](N)CC2)nc2ccnn2c1Nc1cccc(C)c1`, the IC50 is below 100 µM.

Regarding `CCc1c(N[C@H]2CC[C@H](N)CC2)nc2ccnn2c1Nc1ccccc1Cl`, the IC50 is below 100 µM.

Consider `CCc1c(NC2CCCNC2)nc2ccnn2c1Nc1ccc(Br)cc1` (stereo unspecified), for which the IC50 was below 100 µM.

In turn, `Cc1c(N[C@H]2CC[C@H](N)CC2)nc2ccnn2c1Nc1ccc(-c2cc3ccccc3[nH]2)cc1` gave an IC50 below 100 µM.

In turn, `Cc1c(N[C@H]2CC[C@H](N)CC2)nc2ccnn2c1Nc1ccc(OC2CCN(C)CC2)cc1` registered an IC50 below 100 µM.

Regarding `Cc1c(N[C@H]2CC[C@H](N)CC2)nc2ccnn2c1Nc1ccc(OCCCl)cc1`, the IC50 was below 100 µM.

In the case of `Cc1c(N[C@H]2CC[C@H](N)CC2)nc2ccnn2c1Nc1ccc2[nH]ncc2c1`, the IC50 is below 100 µM.

For `Cc1c(N[C@H]2CC[C@H](N)CC2)nc2ccnn2c1Nc1cccc(OCC(O)CO)c1` (stereo partly specified), the half-maximal inhibitory concentration (IC50) is below 100 µM.

In turn, `Cc1c(N[C@H]2CC[C@H](N)CC2)nc2ccnn2c1Nc1ccc(-c2cccc(C(F)(F)F)c2)cc1` came in with an IC50 below 100 µM.

`CCOc1ccc(Nc2c(C)c(N[C@H]3CC[C@H](N)CC3)nc3c(C#N)cnn23)cc1` had an IC50 below 100 µM.

`Cc1c(N[C@H]2CC[C@H](N)CC2)nc2ccnn2c1Nc1cccc(Cl)c1` registered an IC50 below 100 µM.

Regarding `Cc1c(N[C@H]2CC[C@H](N)CC2)nc2ccnn2c1Nc1ccc(OCCC2CCCCC2)cc1`, the IC50 was below 100 µM.

As for `Cc1c(N[C@H]2CC[C@H](N)CC2)nc2ccnn2c1Nc1ccc(N(C)C)cc1`, the half-maximal inhibitory concentration (IC50) was below 100 µM.

In turn, `Cc1c(N[C@H]2CC[C@H](N)CC2)nc2ccnn2c1Nc1ccc(-c2csc3ccccc23)cc1` had an IC50 below 100 µM.

`Cc1c(N[C@H]2CC[C@H](N)CC2)nc2ccnn2c1Nc1ccc(O)cc1` registered an IC50 below 100 µM.

Regarding `Cc1c(N[C@H]2CC[C@H](N)CC2)nc2c(C#N)cnn2c1Nc1ccc(F)c(Cl)c1`, the IC50 was below 100 µM.

For the molecule `Cc1c(N[C@H]2CC[C@H](N)CC2)nc2ccnn2c1Nc1ccc(OC2CCNC2)cc1` (stereo partly specified), the IC50 was below 100 µM.

`Cc1c(N[C@H]2CC[C@H](N)CC2)nc2ccnn2c1Nc1ccccc1` came in with an IC50 below 100 µM.

As to `Cc1ccc(-c2ccc(Nc3c(C)c(N[C@H]4CC[C@H](N)CC4)nc4ccnn34)cc2)cc1`, the IC50 was below 100 µM.

On to `Cc1c(N[C@H]2CC[C@H](N)CC2)nc2ccnn2c1Nc1ccc(-c2cncnc2)cc1`, for which the half-inhibitory concentration (IC50) is below 100 µM.

The molecule `Cc1c(N[C@H]2CC[C@H](N)CC2)nc2ccnn2c1Nc1ccc(C(F)(F)F)cc1` showed a concentration for half-maximal inhibition (IC50) below 100 µM.
